The text below walks through data of patent US11129836B2, “PAR-4 agonists for the treatment of cancer” (Cipla Limited, priority 2016, dated 2021).

Structures are written as SMILES.

Series [1] has as its system PAR-4. As to conditions: mouse embryonic fibroblast (MEF) cells, at micromolar levels; cited from earlier work.
Series [2] relates to PAR-4. The series can be described thus: PAR-4 secretion assay, Western blot of conditioned media and lysate. It counts as cell-based, mouse. On the procedure:
Material: DMEM media, FBS, Mouse embryonic fibroblast cells, PAR-4 antibody, Antirabbit IgG-HRP, Collagen A1 antibody, B-actin antibody, Antimouse IgG HRP
Six well plate seeded (2 ml per well) with Mouse embryonic fibroblast cells in DMEM+10% FBS. The plate was incubated for 16-18 hrs, 37° C. 5% CO2.
Drugs to be tested are diluted with suitable solvent to obtain 25 mM concentration. Media from cells is discarded and replaced with DMEM media with 0.1% FBS. Compound added to the cells at final concentration of 25 μM.
Conditioned media (CM-supernatant) is collected from each well and centrifuged at 1000 rpm/5 mins to remove cell debris. After centrifugation the media was poured in concentration filters (Amicon ultracentrifuge tube with cutoff 10 Kda) and again centrifuged at 4500 rpm/15 mins at 4° C. The media was concentrated to 100 μl and then mixed with 50 μl of loading dye. The mixture was maintained in a 100° C. dry bath/water bath for 10 mins. SDS-PAGE and a western blot was performed of the samples using broad range molecular weight marker.
For orientation: In western blotting, separated proteins are transferred to a membrane and probed.

The test system of series [3] is Mouse embryonic fibroblast cells. The series can be described thus: Assay to analyse non-cytotoxic concentration (CellTiter 96 AQueous One cell proliferation assay). The format is cell-based. As to conditions: up to 48 hours, highest concentration of 125 μM. Here is the method:
Mouse embryonic fibroblast cells were plated in 96-well cell culture plates (2×10^4 cells/well) and were treated with drug/s at various concentrations. […] After the incubation anti-proliferative activity of test compounds was measured using ProMega Cell Titer aqueous one solution cell proliferation assay kit, viz. CellTiter 96® AQueous One Solution Reagent. Cells were incubated for 1-4 hours at 37° C., 5% CO2 incubator and absorbance was measured at 490 nm using a plate reader. IC50 values were determined by plotting compound concentration versus cell viability.

Regarding `COc1ccc(C2=N[C@@H](c3ccc(Cl)cc3)[C@@H](c3ccc(Cl)cc3)N2C(=O)N2CCNC(=O)C2)c(OC(C)C)c1` [Nutlin-3a], the “stimulation of PAR-4 secretion” value in the series on PAR-4 [1] is recorded as “stimulated PAR-4 secretion at micromolar levels”.

Turning to `CO/N=C(\C(=O)N[C@@H]1C(=O)N2C(C(=O)O)=C(COC(N)=O)CS[C@H]12)c1ccco1` [Cefuroxime, (6R, 7R)-3-{[(aminocarbonyl)oxy]methyl}-7-{[(2Z)-2-(2-furyl)-2-(methoxyimino)acetyl]amino}-8-oxo-5-thia-1-azabicyclo [4.2.0]oct-2-ene-2-carboxylic acid], the “PAR-4 secretion (FIG. 1, Western blot)” value in the series with PAR-4 [2] (mouse embryonic fibroblast cells) is given as “increased PAR-4 secretion”. The “increase in the secretion of intracellular PAR-4” value in the series on PAR-4 [2] (mouse embryonic fibroblast cells (lysate), compared to DMSO control, Western blot, compound at 25 μM) was “about 2 fold”. In the series with PAR-4 [2] (mouse embryonic fibroblast cells, compared to DMSO control, Western blot, compound at 25 μM), the “increase in the secretion of PAR-4 in the conditioned media” value is recorded as 4-5 fold. Further, in series [3], the “toxicity in Mouse Embryonic fibroblast cells” value is given as “does not show toxicity”.
